These results are taken from US5955055A, “Synthetic peptides for arterial imaging at vascular imaging sites” (New England Deaconess Hospital Corporation, priority 1995, dated 1999).

Ends that are not written are not given here.

The test system of the first data set is anti-SP-4 antiserum. The data set is described as follows: ELISA for immunological cross-reactivity with anti-SP-4 antiserum. Conditions: ELISA plates coated with LDL or peptide, 100 ng per well. In kind it is binding, rabbit. As for the experimental part: To determine whether the molecular conformation or structure of the synthetic apoB peptides was analogous to the conformation of the apoB moiety of LDL, a polyclonal antiserum was raised to each peptide and its ability to bind LDL tested. Antiserum raised to human LDL was used as the control. To produce anti-synthetic peptide antisera, purified synthetic peptide was dissolved in PBS, pH 7.4 at a concentration of 1 mg/ml. The peptide solution was mixed with an equal volume of complete Freund's adjuvant and vortexed thoroughly until a thick emulsion was produced. New Zealand White rabbits (Millbrook Farms, Amherst, Mass.) were injected with a total of 0.5 mg synthetic peptide administered subcutaneously in the four dorsal quadrants. The rabbits were given a boost (injected at the same sites) with 0.5 mg peptide emulsified in incomplete Freund's adjuvant 2-3 weeks later. Eight to ten days after the first boost, the animals were given a second, identical boost and were bled of 30 ml 8 to 10 days later. To test for immunological cross-reactivity microtiter plates (Immulon II Dynatech Labs, Chantilly, Va.) were coated with the purified synthetic peptide or LDL by an overnight incubation at 4° C. with 100 ng peptide per well in 50 mM carbonate, pH 9.6, and blocked for nonspecific binding with an additional overnight incubation with phosphate-buffered saline, pH 7.4 (PBS), 1% bovine serum albumin (BSA). Control wells were coated with BSA alone. After washing twice with PBS, the wells were filled with serial dilutions (1:10 to 1:100,000 made in PBS, 3% BSA) of a rabbit polyclonal antibody generated against the synthetic peptide(s) and incubated for 45 minutes at room temperature. Following thorough washing (3× with PBS, 0.1% BSA), the wells were filled with a 1:2000 dilution of goat anti-rabbit IgG-horseradish peroxidase conjugate (Atlantic Antibodies, Scarborough, Me.). After a final wash, the wells were filled with 3,3'-5,5'-tetramethybenzidine (TMB) microwell peroxidase substrate (Kirkegaard and Perry Labs, Gaithersburg, Md.) and read at 650 nm every two minutes on an ELISA-5 automated plate reader (Physica, New York, N.Y.). Results (see, e.g., FIGS. 4 and 5) are expressed as the initial velocity of substrate conversion (change in OD650 /hr), which is determined by a linear regression of 15 data points per well. Each data point represents the average of three measured data points from the same plate, run at the same time.
“Ac-YRALVDTLKFVTQAEGAK-NH2 [SP-4A, CH3 CONH-Tyr-Arg-Ala-Leu-Val-Asp-Thr-Leu-Lys-Phe-Val-Thr-Gln-Ala-Glu-Gly-Ala-Lys-CONH2]”: the “Binding of anti-SP-4 antiserum to coated antigen” value (“Binding of anti-SP-4 antiserum” for short) is “shown to bind”.

As for “YRALVDTLKFVTQAEGAK-NH2 [SP-4, NH2 -Tyr-Arg-Ala-Leu-Val-Asp-Thr-Leu-LYs-Phe-Val-Thr-Gln-Ala-Glu-Gly-Ala-Lys-CONH2]”, the “Binding of anti-SP-4 antiserum” value is given as “shown to bind”.

With “Ac-YKLALEAARLLANAEGAK-NH2 [SP-8A, CH3 CONH-Tyr-Lys-Leu-Ala-Leu-Glu-Ala-Ala-Arg-Leu-Leu-Ala-Asn-Ala-Glu-Gly-Ala-Lys-CONH2]”, the “Binding of anti-SP-4 antiserum” value is reported as “shown to bind”.

“YKLALEAARLLANAEGAK-NH2 [SP-8, H2 N-Tyr-Lys-Leu-Ala-Leu-Glu-Ala-Ala-Arq-Leu-Leu-Ala-Asn-Ala-Glu-Gly-Ala-Lys- CONH2]”: the “Binding of anti-SP-4 antiserum” value is “shown to bind”.

Turning to “Ac-YRALVDTLK-NH2 [SP-14A, CH3 CONH-Tyr-Arg-Ala-Leu-Val-Asp-Thr-Leu-Lys-CONH2]”, the “Binding of anti-SP-4 antiserum” value is recorded as “shown to bind”.

Regarding “YKLALEAARLLADAEGAK-NH2 [SP-6, H2 N-Tyr-Lys-Leu-Ala-Leu-Glu-Ala-Ala-Arg-Leu-Leu-Ala-Asp-Ala-Glu-Gly-Ala-Lys- CONH2]”, the “Binding of anti-SP-4 antiserum” value is recorded as “shown to bind”.

Consider “Ac-YRALVDYLKFVTQL-NH2 [SP-12A, CH3 CONH-Tyr-Arg-Ala-Leu-Val-Asp-Tyr-Leu-Lys-Phe-Val-Thr-Gln-Leu-CONH2]”, for which the “Binding of anti-SP-4 antiserum” value was “shown to bind”.

As to “Ac-YKLALEAARLLADAEGAK-NH2 [SP-6A, CH3 CONH-Tyr-Lys-Leu-Ala-Leu-Glu-Ala-Ala-Arg-Leu-Leu-Ala-Asp-Ala-Glu-Gly-Ala-Lys-CONH2]”, the “Binding of anti-SP-4 antiserum” value is on record as “shown to bind”.

System in a further data set: not listed separately
Put plainly: Plasma decay of 125I-labelled synthetic peptide after injection into the marginal ear vein. In kind it is in vivo, rabbit. Conditions: at four hours. As for the experimental part:
Each labelled synthetic peptide preparation (containing, for example, 150 to 400 or more μCi of ^125 I-labelled peptide) in column elution buffer was injected into the marginal ear vein of the ballooned and healing New Zealand white rabbits or WHHL rabbits. Serial blood samples were obtained from the opposite ear during the ensuing 0-24 hours and were analyzed for radioactivity. The labelled peptide concentrations in the blood samples that were withdrawn over the first 10 minutes after injection were extrapolated to zero time to determine the time zero radioactivity in the calculation of average plasma radioactivity. […] Peptides SP15a, SP17, SP19a, SP21a, SP28, SP34a, and SP30 were cleared rapidly from the plasma with half-lives of about one minute or less; after one hour, the plasma levels were less than 10% of the injected dose and fell by an additional 1% over the next three hours. Peptides SP15a, SP17, SP21a, SP28, SP34a, and SP30 leveled off to a plasma level of 3-6%; peptide SP19a cleared more quickly and leveled off to a concentration of 0.3% (at four hours).
Control peptides used were SP-2 (part of the heparin and LDL receptor binding site of apolipoprotein E) and SP-11A which is a receptor and heparin binding domain of apolipoprotein B. To compare the relative accumulation of the ^125 I-labelled synthetic peptides in the aorta and adrenal gland, it was necessary to correct for differences in mean plasma concentration of the labelled compounds. The mean concentration of synthetic peptide-associated ^125 I radioactivity was calculated by numerical integration of the plasma decay curves and division by the time since injection of the isotope.
For the substance Ac-YVLDEFREKLNEELEALKQK-NH2 [SP-34a], the “Plasma level at which the peptide leveled off” value (“Plasma level” below) is on record as 3-6%.

Turning to “Ac-YRALVDTLKFVTEQAKGA-NH2 [SP-19a, CH3 CONH-Tyr-Arg-Ala-Leu-Val-Asp-Thr-Leu-Lys-Phe-Val-Thr-Glu-Gln-Ala-Lys-Gly-Ala-CONH2]”, the “Plasma level” value was 0.3%.

In the case of “Ac-YAKFRETLEDTRDRMY-NH2 [SP-15a, CH3 CONH-Tyr-Ala-Lys-Phe-Arg-Glu-Thr-Leu-Glu-Asp-Thr-Arg-Asp-Arg-Met-Tyr-CONH2]”, the “Plasma level” value is 3-6%.

For the substance “YAALDLNAVANKIADFEL-NH2 [SP-17, H2 N-Tyr-Ala-Ala-Leu-Asp-Leu-Asn-Ala-Val-Ala-Asn-Lys-Ile-Ala-Asp-Phe-Glu-Leu- CONH2]”, the “Plasma level” value is recorded as 3-6%.

As to “Ac-YRALVDTEFKVKQEAGAK-NH2 [SP-21a, CH3 CONH-Tyr-Arg-Ala-Leu-Val-Asp-Thr-Glu-Phe-Lys-Val-Lys-Gln-Glu-Ala-Gly-Ala-Lys-CONH2]”, the “Plasma level” value is listed as 3-6%.

Regarding “YVGVAPGVGVAPGVGVAPG [SP-28, H2 N-Tyr-Val-Gly-Val-Ala-Pro-Gly-val-Gly-Val-Ala-Pro-Gly-Val-Gly-Val-Ala-Pro- Gly-OH]”, the “Plasma level” value is on record as 3-6%.

“YVPGVGVPGVGVPGVGVPGVG-NH2 [SP-30, H2 N-Tyr-Val-Pro-Gly-Val-Gly-Val-Pro-Gly-Val-Gly-Val-Pro-Gly-Val-Gly-Val-Pro- Gly-Val-Gly-CONH2]”: the “Plasma level” value is 3-6%.
